Measured values taken from patent US20230295087A1, “AGONISTS OF ROR GAMMAt” (BRISTOL-MYERS SQUIBB COMPANY, priority 2019, published 2023).

Each molecule was assayed against T1, human RORgT (Homo sapiens, UniProt P51449) (assay: RORgT Gal4 Luciferase Reporter Gene Assay). Conditions: engineered Jurkat cells overexpressing RORgT (LBD or full length) fused with Gal4 Luc reporter; 18 hours at 37° C.; luminescence.
T1 construct: expressed in transfected cells
T1 sequence (P51449 267-516): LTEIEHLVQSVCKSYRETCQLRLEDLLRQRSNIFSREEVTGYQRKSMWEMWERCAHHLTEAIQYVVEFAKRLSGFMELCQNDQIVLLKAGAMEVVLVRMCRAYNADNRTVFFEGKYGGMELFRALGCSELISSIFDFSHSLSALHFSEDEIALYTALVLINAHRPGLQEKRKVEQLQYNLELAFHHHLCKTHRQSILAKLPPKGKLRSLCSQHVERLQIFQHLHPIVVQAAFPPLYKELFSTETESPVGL
Type: cell-based
Procedure, shortened: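 Jurkat cells expressing Gal4 Luc with either RORgT LBD (aa267-516) or full-length human RORgT, 10,000 cells/well, treated with compound (40 µM to 0.67 nM final, 3-fold dilutions) for 18 h at 37° C. Steady-Glo luminescence read; inhibition of constitutive activity as % signal-window reduction relative to a control compound.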

First: N#CCCN1C(=O)CC[C@H]1C(=O)N1CC[C@@]2(S(=O)(=O)c3ccc(F)cc3)c3ccc(OCc4cc(Cl)ccc4Cl)cc3CC[C@@H]12 [Example 157, 3-[(2S)-2-[(3aR,9bR)-7-[(2,5-dichlorophenyl)methoxy]-9b-(4-fluorobenzenesulfonyl)-1H,2H,3H,3aH,4H,5H,9bH-benzo[e]indole-3-carbonyl]-5-oxopyrrolidin-l-yl]propanenitrile]
Second: N#CCCN1C(=O)CC[C@H]1C(=O)N1CC[C@@]2(S(=O)(=O)c3ccc(F)cc3)c3ccc(OCc4cc(F)c(F)cc4Cl)cc3CC[C@@H]12 [Example 158, 3-[(2S)-2-[(3aR,9bR)-7-[(2-chloro-4,5-difluorophenyl)methoxy]-9b-(4-fluorobenzenesulfonyl)-1H,2H,3H,3aH,4H,5H,9bH-benzo[e]indole-3-carbonyl]-5-oxopyrrolidin-l-yl]propanenitrile]
The EC50 of the first is 2.8-fold lower: 0.0043 µM for the first, 0.012 µM for the second. The first is the more potent here.

First: O=C(O)[C@H]1CC[C@H](C(=O)N2CC[C@@]3(S(=O)(=O)c4ccc(F)cc4)c4ccc(CCc5c(Cl)cccc5Cl)cc4CC[C@@H]23)CC1 [Example 159, (1r,4r)-4-[(3aR,9bR)-7-[2-(2,6-dichlorophenyl)ethyl]-9b-(4-fluorobenzenesulfonyl)-1H,2H,3H,3aH,4H,5H,9bH-benzo[e]indole-3-carbonyl]cyclohexane-1-carboxylic acid]
Second: NC(=O)N1CCC(C(=O)N2CC[C@@]3(S(=O)(=O)c4ccc(F)cc4)c4ccc(CCc5c(Cl)cccc5Cl)cc4CC[C@@H]23)CC1 [Example 162, 4-[(3aR,9bR)-7-[2-(2,6-dichlorophenyl)ethyl]-9b-(4-fluorobenzenesulfonyl)-1H,2H,3H,3aH,4H5H,9bH-benzo[e]indole-3-carbonyl]piperidine-1-carboxamide]
The EC50 of the first is 7.4-fold lower: 0.0011 µM for the first, 0.0081 µM for the second. The first is the more potent here.

`N#CCCN1C(=O)CC[C@H]1C(=O)N1CC[C@@]2(S(=O)(=O)c3ccc(F)cc3)c3ccc(OCc4c(F)cccc4Cl)cc3CC[C@@H]12` [Example 160, 3-[(2S)-2-[(3aR,9bR)-7-[(2-chloro-6-fluorophenyl)methoxy]-9b-(4-fluorobenzenesulfonyl)-1H,2H,3H,3aH,4H,5H,9bH-benzo[e]indole-3-carbonyl]-5-oxopyrrolidin-l-yl]propanenitrile] and `O=C(C1CCS(=O)(=O)C1)N1CC[C@@]2(S(=O)(=O)c3ccc(F)cc3)c3ccc(OCc4c(F)cccc4Cl)cc3CC[C@@H]12` (stereo partly drawn) [Example 163, 3-[(3aR,9bR)-7-[(2-chloro-6-fluorophenyl)methoxy]-9b-(4-fluorobenzenesulfonyl)-1H,2H,3H,3aH,4H,5H,9bH-benzo[e]indole-3-carbonyl]-1λ^6-thiolane-1,1-dione] are within 1.5-fold of each other in EC50: 0.01 µM for the first, 0.012 µM for the second.

Going from `O=C(C1CCS(=O)(=O)CC1)N1CC[C@@]2(S(=O)(=O)c3ccc(F)cc3)c3ccc(CCc4c(Cl)cccc4Cl)cc3CC[C@@H]12` [Example 161, 4-[(3aR,9bR)-7-[2-(2,6-dichlorophenyl)ethyl]-9b-(4-fluorobenzenesulfonyl)-1H,2H,3H,3aH,4H,5H,9bH-benzo[e]indole-3-carbonyl]-1λ^6-thiane-1,1-dione] to `O=C(C1CCS(=O)(=O)C1)N1CC[C@@]2(S(=O)(=O)c3ccc(F)cc3)c3ccc(OCc4c(Cl)cccc4Cl)cc3CC[C@@H]12` (stereo partly drawn) [Example 170, 3-[(3aR,9bR)-7-[(2,6-dichlorophenyl)methoxy]-9b-(4-fluorobenzenesulfonyl)-1H,2H,3H,3aH,4H,5H,9bH-benzo[e]indole-3-carbonyl]-1λ^6-thiolane-1,1-dione], the EC50 rises from 0.0058 µM to 0.014 µM (2.4-fold).

`CS(=O)(=O)N1CCC(C(=O)N2CC[C@@]3(S(=O)(=O)c4ccc(F)cc4)c4ccc(OCc5c(F)cccc5Cl)cc4CC[C@@H]23)CC1` [Example 164, 4-[(3aR,9bR)-7-[(2-chloro-6-fluorophenyl)methoxy]-9b-(4-fluorobenzenesulfonyl)-1H,2H,3H,3aH,4H,5H,9bH-benzo[e]indole-3-carbonyl]-1-methanesulfonylpiperidine] and `CS(=O)(=O)N1CCC(C(=O)N2CC[C@@]3(S(=O)(=O)c4ccc(F)cc4)c4ccc(OCc5cc(F)ccc5Cl)cc4CC[C@@H]23)CC1` [Example 177, 4-[(3aR,9bR)-7-[(2-chloro-5-fluorophenyl)methoxy]-9b-(4-fluorobenzenesulfonyl)-1H,2H,3H,3aH,4H,5H,9bH-benzo[e]indole-3-carbonyl]-1-methanesulfonylpiperidine] are within 1.5-fold of each other in EC50: 0.024 µM for the first, 0.018 µM for the second.

`O=C(CN1CCS(=O)(=O)CC1)N1CC[C@@]2(S(=O)(=O)c3ccc(F)cc3)c3ccc(OCc4c(F)cccc4Cl)cc3CC[C@@H]12` [Example 165, 4-{2-[(3aR,9bR)-7-[(2-chloro-6-fluorophenyl)methoxy]-9b-(4-fluorobenzenesulfonyl)-1H,2H,3H,3aH,4H,5H,9bH-benzo[e]indol-3-yl]-2-oxoethyl}-1λ^6-thiomorpholine-1,1-dione] and `O=C(CN1CCS(=O)(=O)CC1)N1CC[C@@]2(S(=O)(=O)c3ccc(F)cc3)c3ccc(OCc4c(Cl)cccc4Cl)cc3CC[C@@H]12` [Example 173, 4-{2-[(3aR,9bR)-7-[(2,6-dichlorophenyl)methoxy]-9b-(4-fluorobenzenesulfonyl)-1H,2H,3H,3aH,4H,5H,9bH-benzo[e]indol-3-yl]-2-oxoethyl}-1λ^6-thiomorpholine-1,1-dione] are within 1.5-fold of each other in EC50: 0.011 µM for the first, 0.014 µM for the second.

First: O=C(C1CCS(=O)(=O)CC1)N1CC[C@@]2(S(=O)(=O)c3ccc(F)cc3)c3ccc(OCc4c(F)cccc4Cl)cc3CC[C@@H]12 [Example 166, 4-[(3aR,9bR)-7-[(2-chloro-6-fluorophenyl)methoxy]-9b-(4-fluorobenzenesulfonyl)-1H,2H,3H,3aH,4H,5H,9bH-benzo[e]indole-3-carbonyl]-1λ^6-thiane-1,1-dione]
Second: CC(=O)N1CCC(C(=O)N2CC[C@@]3(S(=O)(=O)c4ccc(F)cc4)c4ccc(OCc5c(F)cccc5Cl)cc4CC[C@@H]23)CC1 [Example 167, 1-{4-[(3aR,9bR)-7-[(2-chloro-6-fluorophenyl)methoxy]-9b-(4-fluorobenzenesulfonyl)-1H,2H,3H,3aH,4H,5H,9bH-benzo[e]indole-3-carbonyl]piperidin-1-yl}ethan-1-one]
The EC50 of the first is 1.7-fold lower: 0.0078 µM for the first, 0.013 µM for the second. The first is the more potent here.

Compared with `COC(=O)[C@H]1CC[C@H](C(=O)N2CC[C@@]3(S(=O)(=O)c4ccc(F)cc4)c4ccc(OCc5c(Cl)cccc5Cl)cc4CC[C@@H]23)CC1` [Example 169, methyl(1r,4r)-4-[(3aR,9bR)-7-[(2,6-dichlorophenyl)methoxy]-9b-(4-fluorobenzenesulfonyl)-1H,2H,3H,3aH,4H,5H,9bH-benzo[e]indole-3-carbonyl]cyclohexane-1-carboxylate], `COC(=O)[C@H]1CC[C@H](C(=O)N2CC[C@@]3(S(=O)(=O)c4ccc(F)cc4)c4ccc(OCc5cc(F)ccc5Cl)cc4CC[C@@H]23)CC1` [Example 176, methyl (1r,4r)-4-[(3aR,9bR)-7-[(2-chloro-5-fluorophenyl)methoxy]-9b-(4-fluorobenzenesulfonyl)-1H,2H,3H,3aH,4H,5H,9bH-benzo[e]indole-3-carbonyl]cyclohexane-1-carboxylate] is 1.5-fold higher in EC50: 0.037 µM for the first, 0.056 µM for the second.

Going from `CN1CCC(C(=O)N2CC[C@@]3(S(=O)(=O)c4ccc(F)cc4)c4ccc(OCc5c(Cl)cccc5Cl)cc4CC[C@@H]23)CC1` [Example 171, 4-[(3aR,9bR)-7-[(2,6-dichlorophenyl)methoxy]-9b-(4-fluorobenzenesulfonyl)-1H,2H,3H,3aH,4H,5H,9bH-benzo[e]indole-3-carbonyl]-1-methylpiperidine] to `NC(=O)N1CCC(C(=O)N2CC[C@@]3(S(=O)(=O)c4ccc(F)cc4)c4ccc(OCc5c(Cl)cccc5Cl)cc4CC[C@@H]23)CC1` [Example 172, 4-[(3aR,9bR)-7-[(2,6-dichlorophenyl)methoxy]-9b-(4-fluorobenzenesulfonyl)-1H,2H,3H,3aH,4H,5H,9bH-benzo[e]indole-3-carbonyl]piperidine-1-carboxamide], the EC50 falls from 0.113 µM to 0.019 µM (5.9-fold). The second is the more potent here.

Going from `CC(=O)N1CCC(C(=O)N2CC[C@@]3(S(=O)(=O)c4ccc(F)cc4)c4ccc(OCc5cc(F)ccc5Cl)cc4CC[C@@H]23)CC1` [Example 174, 1-{4-[(3aR,9bR)-7-[(2-chloro-5-fluorophenyl)methoxy]-9b-(4-fluorobenzenesulfonyl)-1H,2H,3H,3aH,4H,5H,9bH-benzo[e]indole-3-carbonyl]piperidin-1-yl}ethan-1-one] to `NC(=O)N1CCC(C(=O)N2CC[C@@]3(S(=O)(=O)c4ccc(F)cc4)c4ccc(OCc5cc(F)ccc5Cl)cc4CC[C@@H]23)CC1` [Example 179, 4-[(3aR,9bR)-7-[(2-chloro-5-fluorophenyl)methoxy]-9b-(4-fluorobenzenesulfonyl)-1H,2H,3H,3aH,4H,5H,9bH-benzo[e]indole-3-carbonyl]piperidine-1-carboxamide], the EC50 falls from 0.026 µM to 0.012 µM (2.2-fold). The second is the more potent here.

`O=C(O)[C@H]1CC[C@H](C(=O)N2CC[C@@]3(S(=O)(=O)c4ccc(F)cc4)c4ccc(OCc5cc(F)ccc5Cl)cc4CC[C@@H]23)CC1` [Example 175, (1r,4r)-4-[(3aR,9bR)-7-[(2-chloro-5-fluorophenyl)methoxy]-9b-(4-fluorobenzenesulfonyl)-1H,2H,3H,3aH,4H,5H,9bH-benzo[e]indole-3-carbonyl]cyclohexane-1-carboxylic acid] and `O=C(C1CCS(=O)(=O)C1)N1CC[C@@]2(S(=O)(=O)c3ccc(F)cc3)c3ccc(OCc4cc(F)ccc4Cl)cc3CC[C@@H]12` (stereo partly drawn) [Example 178, 3-[(3aR,9bR)-7-[(2-chloro-5-fluorophenyl)methoxy]-9b-(4-fluorobenzenesulfonyl)-1H,2H,3H,3aH,4H,5H,9bH-benzo[e]indole-3-carbonyl]-1λ^6-thiolane-1,1-dione] are within 1.5-fold of each other in EC50: 0.0095 µM for the first, 0.012 µM for the second.
